According to ChEMBL document CHEMBL1201862, “PubChem BioAssay data set” (2004):
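The compound was tested at five concentrations on cells cultured in 96-well plates, with a 48-hour exposure period. Here, GI50 denotes the concentration required for 50% inhibition of growth.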 The source made the active and inactive calls. Cut-off read from the data, not from the text of the source: active = GI50 up to about 1.1 µM and inactive = higher.

Columns and labels:
Assay in all cases: DTP human tumour cell line panel, 48 h
EKVX = test system: EKVX
HCC 2998 = test system: HCC 2998
HCT-116 = test system: HCT-116
HCT-15 = test system: HCT-15
HL-60 = test system: HL-60
MOLT-4 = test system: MOLT-4
Malme-3M = test system: Malme-3M
NCI-H226 = test system: NCI-H226
NCI-H23 = test system: NCI-H23
NCI-H460 = test system: NCI-H460
NCI-H522 = test system: NCI-H522
OVCAR-3 = test system: OVCAR-3
OVCAR-8 = test system: OVCAR-8
SF-295 = test system: SF-295
SF-539 = test system: SF-539
SN12C = test system: SN12C
UACC-257 = test system: UACC-257

C=CC1(CC)/C(=N\O)C(CC)(CC)C(=O)N1O (stereo not drawn)
GI50 (EKVX): > 100 µM (inactive) | GI50 (HCC 2998): > 100 µM (inactive) | GI50 (HCT-116): > 100 µM (inactive) | GI50 (HCT-15): > 100 µM | GI50 (HL-60): > 100 µM (inactive) | GI50 (MOLT-4): > 100 µM (inactive) | GI50 (Malme-3M): > 100 µM (inactive) | GI50 (NCI-H226): > 100 µM (inactive) | GI50 (NCI-H23): > 100 µM (inactive) | GI50 (NCI-H460): > 100 µM (inactive) | GI50 (NCI-H522): > 100 µM (inactive) | GI50 (OVCAR-3): > 100 µM (inactive) | GI50 (OVCAR-8): > 100 µM (inactive) | GI50 (SF-295): > 100 µM (inactive) | GI50 (SF-539): > 100 µM (inactive) | GI50 (SN12C): > 100 µM (inactive) | GI50 (UACC-257): > 100 µM (inactive)

CC(=O)OC(C)(C)C1CCC(C)(C(O)COc2ccc(CCNC(=O)c3ccccc3)cc2)O1 (stereo not drawn)
GI50 (HCT-116): 28.8 µM (inactive) | GI50 (HCT-15): 46 µM | GI50 (HL-60): 15.5 µM (inactive) | GI50 (MOLT-4): 14.8 µM (inactive) | GI50 (Malme-3M): 63.5 µM (inactive) | GI50 (NCI-H23): > 100 µM (inactive) | GI50 (NCI-H460): 61.8 µM (inactive) | GI50 (NCI-H522): 51.2 µM (inactive) | GI50 (OVCAR-3): 27.6 µM (inactive) | GI50 (OVCAR-8): 47.5 µM (inactive) | GI50 (SF-295): 37.1 µM (inactive) | GI50 (SF-539): 60.8 µM (inactive) | GI50 (SN12C): > 100 µM (inactive) | GI50 (UACC-257): > 100 µM (inactive)

CCCCCCC1CCC2CCCC(C)N12 (stereo not drawn)
GI50 (EKVX): > 100 µM (inactive) | GI50 (HCC 2998): 22.6 µM (inactive) | GI50 (HCT-116): 51.1 µM (inactive) | GI50 (HCT-15): 32.8 µM | GI50 (HL-60): 17.8 µM (inactive) | GI50 (MOLT-4): 18.3 µM (inactive) | GI50 (Malme-3M): > 10 µM (inactive) | GI50 (NCI-H226): > 100 µM (inactive) | GI50 (NCI-H23): 34.4 µM (inactive) | GI50 (NCI-H460): 23.7 µM (inactive) | GI50 (NCI-H522): 22.9 µM (inactive) | GI50 (OVCAR-3): > 100 µM (inactive) | GI50 (OVCAR-8): 45.6 µM (inactive) | GI50 (SF-295): 43.4 µM (inactive) | GI50 (SF-539): 76 µM (inactive) | GI50 (SN12C): 95.9 µM (inactive) | GI50 (UACC-257): 37.9 µM (inactive)

Cc1cc2c(c(C(N)=O)c1C)-c1cccc(Cl)c1C2=O
GI50 (EKVX): > 100 µM (inactive) | GI50 (HCC 2998): > 100 µM (inactive) | GI50 (HCT-116): > 100 µM (inactive) | GI50 (HCT-15): > 100 µM | GI50 (HL-60): > 100 µM (inactive) | GI50 (MOLT-4): 57.9 µM (inactive) | GI50 (Malme-3M): > 100 µM (inactive) | GI50 (NCI-H23): > 100 µM (inactive) | GI50 (NCI-H460): > 100 µM (inactive) | GI50 (NCI-H522): 27 µM (inactive) | GI50 (OVCAR-3): > 100 µM (inactive) | GI50 (OVCAR-8): > 100 µM (inactive) | GI50 (SF-295): > 100 µM (inactive) | GI50 (SF-539): > 100 µM (inactive) | GI50 (SN12C): > 100 µM (inactive) | GI50 (UACC-257): > 100 µM (inactive)

CN1C2(c3ccccc3)c3c(-c4ccccc4)sc(-c4ccccc4)c3C1(c1ccccc1)C1C(=O)N(c3ccccc3)C(=O)C12 (stereo not drawn)
GI50 (EKVX): > 100 µM (inactive) | GI50 (HCC 2998): > 100 µM (inactive) | GI50 (HCT-116): > 100 µM (inactive) | GI50 (HL-60): > 100 µM (inactive) | GI50 (Malme-3M): > 100 µM (inactive) | GI50 (NCI-H226): > 100 µM (inactive) | GI50 (NCI-H23): > 100 µM (inactive) | GI50 (NCI-H460): > 100 µM (inactive) | GI50 (NCI-H522): > 100 µM (inactive) | GI50 (OVCAR-3): > 100 µM (inactive) | GI50 (OVCAR-8): > 100 µM (inactive) | GI50 (SF-295): > 100 µM (inactive) | GI50 (SF-539): > 100 µM (inactive) | GI50 (SN12C): > 100 µM (inactive) | GI50 (UACC-257): > 100 µM (inactive)

CS(=O)(=O)c1ccc(-c2cc(-c3ccc(S(C)(=O)=O)cc3)[n+](-c3cc(-c4ccccc4)c([O-])c(-c4ccccc4)c3)c(-c3ccc(S(C)(=O)=O)cc3)c2)cc1
GI50 (EKVX): > 100 µM (inactive) | GI50 (HCC 2998): > 100 µM (inactive) | GI50 (HCT-116): > 100 µM (inactive) | GI50 (HCT-15): > 100 µM | GI50 (MOLT-4): > 100 µM (inactive) | GI50 (Malme-3M): > 100 µM (inactive) | GI50 (NCI-H226): > 100 µM (inactive) | GI50 (NCI-H23): > 100 µM (inactive) | GI50 (NCI-H460): > 100 µM (inactive) | GI50 (NCI-H522): > 100 µM (inactive) | GI50 (OVCAR-3): > 100 µM (inactive) | GI50 (OVCAR-8): > 100 µM (inactive) | GI50 (SF-295): > 100 µM (inactive) | GI50 (SF-539): > 100 µM (inactive) | GI50 (SN12C): > 100 µM (inactive) | GI50 (UACC-257): 38.5 µM (inactive)

O=c1ccccc2cccc(O)c12
GI50 (EKVX): 94.2 µM (inactive) | GI50 (HCC 2998): > 100 µM (inactive) | GI50 (HCT-116): > 100 µM (inactive) | GI50 (HCT-15): > 100 µM | GI50 (HL-60): > 100 µM (inactive) | GI50 (MOLT-4): > 100 µM (inactive) | GI50 (NCI-H23): > 100 µM (inactive) | GI50 (NCI-H460): > 100 µM (inactive) | GI50 (OVCAR-3): > 100 µM (inactive) | GI50 (OVCAR-8): > 100 µM (inactive) | GI50 (SF-295): > 100 µM (inactive) | GI50 (SF-539): > 100 µM (inactive) | GI50 (SN12C): > 100 µM (inactive) | GI50 (UACC-257): > 100 µM (inactive)

CN(C)/C=N\c1cc[nH]c(=O)n1
GI50 (EKVX): > 100 µM (inactive) | GI50 (HCT-116): > 100 µM (inactive) | GI50 (HCT-15): > 100 µM | GI50 (HL-60): > 100 µM (inactive) | GI50 (Malme-3M): > 100 µM (inactive) | GI50 (NCI-H226): > 100 µM (inactive) | GI50 (NCI-H460): > 100 µM (inactive) | GI50 (NCI-H522): > 100 µM (inactive) | GI50 (OVCAR-3): > 100 µM (inactive) | GI50 (OVCAR-8): > 100 µM (inactive) | GI50 (SF-295): > 100 µM (inactive) | GI50 (SF-539): > 100 µM (inactive) | GI50 (SN12C): > 100 µM (inactive) | GI50 (UACC-257): > 100 µM (inactive)

CC(=O)NNc1nc(C)c(C(=O)/C=C/c2ccc(Cl)c(Cl)c2)s1
GI50 (EKVX): > 100 µM (inactive) | GI50 (HCC 2998): > 100 µM (inactive) | GI50 (HCT-15): > 100 µM | GI50 (HL-60): > 100 µM (inactive) | GI50 (MOLT-4): > 100 µM (inactive) | GI50 (Malme-3M): > 100 µM (inactive) | GI50 (NCI-H23): > 100 µM (inactive) | GI50 (NCI-H460): > 100 µM (inactive) | GI50 (NCI-H522): 95.9 µM (inactive) | GI50 (OVCAR-3): > 100 µM (inactive) | GI50 (OVCAR-8): > 100 µM (inactive) | GI50 (SF-295): > 100 µM (inactive) | GI50 (SF-539): > 100 µM (inactive) | GI50 (SN12C): > 100 µM (inactive) | GI50 (UACC-257): > 100 µM (inactive)
